Consider 21 compounds from ChEMBL document CHEMBL5131494, “Phe19 modification of HDM2-p53 PPI inhibitors to alleviate CYP3A4 metabolism/mechanism-based inhibition liability” (Bioorg Med Chem Lett, 2022).

In data set [1] the target is T1, Cytochrome P450 3A4 (Homo sapiens, UniProt P08684). The data set is described as follows: Inhibition of CYP3A4 (unknown origin) using testosterone as substrate pretreated with NADPH. The format is ADME.
Data set [2] concerns the target T1, Cytochrome P450 3A4. Description: Inhibition of CYP3A4 (unknown origin) using testosterone as substrate in presence of NADPH. In kind it is ADME.
Data set [3] addresses CYP3A4 (Homo sapiens, UniProt P08684). Description: Ratio of IC50 for CYP3A4 (unknown origin) co-incubated with NADPH to IC50 for CYP3A4 (unknown origin) pretreated with NADPH. The note with it: read-out: Ratio IC50.
Data set [4] addresses Tumour suppressor p53/oncoprotein Mdm2 (Homo sapiens, UniProt Q00987). The data set is described as follows: Inhibition of HDM2-p53 (unknown origin) protein-protein interaction by fluorescence polarization peptide displacement assay.

T1 sequence (P08684 whole entry): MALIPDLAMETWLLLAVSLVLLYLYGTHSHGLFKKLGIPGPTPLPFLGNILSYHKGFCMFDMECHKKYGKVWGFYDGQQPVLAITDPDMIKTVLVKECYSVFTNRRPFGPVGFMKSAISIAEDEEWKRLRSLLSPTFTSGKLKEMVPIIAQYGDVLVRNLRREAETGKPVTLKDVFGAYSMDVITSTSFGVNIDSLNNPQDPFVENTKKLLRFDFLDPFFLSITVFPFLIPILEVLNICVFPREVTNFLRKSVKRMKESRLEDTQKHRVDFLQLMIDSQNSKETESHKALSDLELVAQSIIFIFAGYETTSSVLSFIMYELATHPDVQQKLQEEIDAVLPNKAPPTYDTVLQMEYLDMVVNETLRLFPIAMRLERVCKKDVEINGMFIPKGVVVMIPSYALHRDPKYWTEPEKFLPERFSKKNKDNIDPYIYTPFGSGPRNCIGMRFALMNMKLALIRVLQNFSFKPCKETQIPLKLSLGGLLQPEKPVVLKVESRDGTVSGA
Chain of CYP3A4 (P08684 whole entry): as above
Chain of Tumour suppressor p53/oncoprotein Mdm2 (P04637 whole entry): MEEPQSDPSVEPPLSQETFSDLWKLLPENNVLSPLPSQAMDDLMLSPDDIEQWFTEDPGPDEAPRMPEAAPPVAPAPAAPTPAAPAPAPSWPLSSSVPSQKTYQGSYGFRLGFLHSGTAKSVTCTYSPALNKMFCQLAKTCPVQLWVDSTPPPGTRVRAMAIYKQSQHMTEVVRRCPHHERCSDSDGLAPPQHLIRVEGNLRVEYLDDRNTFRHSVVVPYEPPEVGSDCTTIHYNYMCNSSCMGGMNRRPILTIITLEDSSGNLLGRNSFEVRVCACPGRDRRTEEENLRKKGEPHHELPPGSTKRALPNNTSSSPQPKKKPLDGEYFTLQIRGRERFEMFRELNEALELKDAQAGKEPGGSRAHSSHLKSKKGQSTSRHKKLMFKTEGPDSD
Chain of Tumour suppressor p53/oncoprotein Mdm2 (Q00987 whole entry): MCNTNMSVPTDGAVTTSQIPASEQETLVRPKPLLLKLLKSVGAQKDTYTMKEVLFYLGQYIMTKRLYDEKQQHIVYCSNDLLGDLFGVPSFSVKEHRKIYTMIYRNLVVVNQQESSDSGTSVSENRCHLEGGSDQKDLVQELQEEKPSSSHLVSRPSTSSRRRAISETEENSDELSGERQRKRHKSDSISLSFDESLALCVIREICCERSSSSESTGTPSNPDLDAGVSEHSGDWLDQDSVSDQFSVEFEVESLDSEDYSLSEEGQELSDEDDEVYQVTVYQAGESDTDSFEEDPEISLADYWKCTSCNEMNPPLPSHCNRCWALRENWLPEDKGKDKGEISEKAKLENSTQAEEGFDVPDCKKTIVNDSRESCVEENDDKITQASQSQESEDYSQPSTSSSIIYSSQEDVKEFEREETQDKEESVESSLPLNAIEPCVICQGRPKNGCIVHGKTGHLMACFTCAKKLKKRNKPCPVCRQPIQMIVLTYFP

For `CCC[C@H]1N(C(=O)c2ncccc2C(F)(F)F)CCC[C@@]1(Oc1csc(C(F)(F)F)c1)C(=O)N1CCN(c2ccccc2OCCO)CC1`, the IC50 in data set [1] is 200 nM; in data set [2], 35100 nM; in data set [4], 7 nM. For the same compound, the IC50 shift in data set [3] is 160.

Turning to `CCC[C@H]1N(C(=O)c2c(C(F)(F)F)ccnc2O)CCC[C@@]1(Oc1csc(C(F)(F)F)c1)C(=O)N1CCN(c2ccccc2OCCO)CC1`, the IC50 in data set [1] turned out to be 30000 nM; in data set [2] it was 30000 nM; in data set [4] it was 44 nM. The IC50 shift in data set [3] was found to be 1.

Compound `CCC[C@H]1N(C(=O)c2cccnc2C(F)(F)F)CCC[C@@]1(Oc1csc(C(F)(F)F)c1)C(=O)N1CCN(c2ccccc2OCCO)CC1` displayed an IC50 in data set [4] of 117 nM.

With `CCC[C@H]1N(C(=O)c2cc(F)ccc2C(F)(F)F)CCC[C@@]1(Oc1csc(C(F)(F)F)c1)C(=O)N1CCN(c2ccccc2OCCO)CC1`, the IC50 came out at 600 nM in data set [1], 50000 nM in data set [2] and 34 nM in data set [4]. Also, the IC50 shift in data set [3] is 90.

For `CCC[C@H]1N(C(=O)c2c(C(F)(F)F)ccnc2OCCN(C)C)CCC[C@@]1(Oc1csc(C(F)(F)F)c1)C(=O)N1CCN(c2ccccc2OCCO)CC1`, the IC50 in data set [1] is 2000 nM; in data set [2], 20000 nM; in data set [4], 10 nM. Moreover, the IC50 shift in data set [3] came out at 10.

On to `CCC[C@H]1N(C(=O)c2c(C(F)(F)F)ccnc2O)CCC[C@@]1(Oc1csc(C(F)(F)F)c1)C(=O)N1CCN(c2ccccc2OCCCC(=O)O)CC1`, for which the IC50 in data set [1] was found to be 50000 nM; in data set [2] it was 50000 nM; in data set [4], 11 nM. The IC50 shift in data set [3] turned out to be 1.

Take `CCC[C@H]1N(C(=O)c2cnccc2C(F)(F)F)CCC[C@@]1(Oc1csc(C(F)(F)F)c1)C(=O)N1CCN(c2ccccc2OCCO)CC1`: the IC50 in data set [1] is 300 nM; in data set [2], 6600 nM; in data set [4], 15 nM.

In data set [4], `CCC[C@H]1N(C(=O)c2c(N)cccc2C(F)(F)F)CCC[C@@]1(Oc1csc(C(F)(F)F)c1)C(=O)N1CCN(c2ccccc2OCCO)CC1` registered an IC50 of 6800 nM.

Take `CCC[C@H]1N(C(=O)c2c(C(F)(F)F)ccnc2OCC(=O)O)CCC[C@@]1(Oc1csc(C(F)(F)F)c1)C(=O)N1CCN(c2ccccc2OCCO)CC1`: the IC50 in data set [1] worked out at 4400 nM; in data set [2], 20000 nM; in data set [4], 25 nM. Moreover, the IC50 shift in data set [3] turned out to be 5.

As for `CCC[C@H]1N(C(=O)c2c(C(F)(F)F)ccc[n+]2[O-])CCC[C@@]1(Oc1csc(C(F)(F)F)c1)C(=O)N1CCN(c2ccccc2OCCO)CC1`, the IC50 in data set [1] was 1900 nM; in data set [2] it was 50000 nM; in data set [4], 22 nM. Further, the IC50 shift in data set [3] came to 26.

As to `CCC[C@H]1N(C(=O)c2c(F)cccc2C(F)(F)F)CCC[C@@]1(Oc1csc(C(F)(F)F)c1)C(=O)N1CCN(c2ccccc2OCCO)CC1`, the IC50 was determined as 400 nM in data set [1], 50000 nM in data set [2] and 65 nM in data set [4]. Also, in data set [3], the IC50 shift was found to be 126.

For `C=CCOc1nccc(C(F)(F)F)c1C(=O)N1CCC[C@@](Oc2csc(C(F)(F)F)c2)(C(=O)N2CCN(c3ccccc3OCCO)CC2)[C@H]1CCC`, the IC50 in data set [1] was found to be 5700 nM; in data set [2] it was 50000 nM; in data set [4], 28 nM. Further, the IC50 shift in data set [3] was 9.

As for `CCC[C@H]1N(C(=O)c2c(C(F)(F)F)ccnc2O)CCC[C@@]1(Oc1csc(C(F)(F)F)c1)C(=O)N1CCN(c2ccccc2OC)CC1`, the concentration for half-maximal inhibition (IC50) in data set [1] turned out to be 9200 nM; in data set [2] it was 20000 nM; in data set [4], 32 nM. In addition, in data set [3], the IC50 shift turned out to be 2.

For the compound `CCC[C@H]1N(C(=O)c2c(C(F)(F)F)ccnc2OCC(=O)NC)CCC[C@@]1(Oc1csc(C(F)(F)F)c1)C(=O)N1CCN(c2ccccc2OCCO)CC1`, the IC50 in data set [4] was found to be 246 nM.

`C=CCNc1nccc(C(F)(F)F)c1C(=O)N1CCC[C@@](Oc2csc(C(F)(F)F)c2)(C(=O)N2CCN(c3ccccc3OCCO)CC2)[C@H]1CCC` had an IC50 in data set [4] of 1000 nM.

Turning to `CCC[C@H]1N(C(=O)c2cnccc2C(F)(F)F)CCC[C@@]1(Oc1csc(C(F)(F)F)c1)C(=O)N1CCN(c2ccccc2OCCCC(=O)O)CC1`, the IC50 came out at 900 nM in data set [1] and 20000 nM in data set [2]. In data set [3], the IC50 shift was found to be 23.

Regarding `CCC[C@H]1N(C(=O)c2cnccc2C(F)(F)F)CCC[C@@]1(Oc1csc(C(F)(F)F)c1)C(=O)N1CCN(c2ccccc2OC)CC1`, the IC50 in data set [1] is 300 nM; in data set [2], 10000 nM; in data set [4] it was 30 nM. In data set [3], the IC50 shift was 33.

As to `CCC[C@H]1N(C(=O)c2c(C(F)(F)F)ccnc2OCCO)CCC[C@@]1(Oc1csc(C(F)(F)F)c1)C(=O)N1CCN(c2ccccc2OCCO)CC1`, the IC50 was 1500 nM in data set [1], 50000 nM in data set [2] and 103 nM in data set [4]. The IC50 shift in data set [3] came to 33.

Compound `CCC[C@H]1N(C(=O)c2ccncc2C(F)(F)F)CCC[C@@]1(Oc1csc(C(F)(F)F)c1)C(=O)N1CCN(c2ccccc2OCCO)CC1` registered an IC50 in data set [4] of 66 nM.

Consider `CCC[C@H]1N(C(=O)c2cccnc2)CCC[C@@]1(Oc1csc(C(F)(F)F)c1)C(=O)N1CCN(c2ccccc2OCCO)CC1`, for which the IC50 in data set [4] stood at 1770 nM.

In the case of `CCC[C@H]1N(C(=O)c2cnccc2C)CCC[C@@]1(Oc1csc(C(F)(F)F)c1)C(=O)N1CCN(c2ccccc2OCCO)CC1`, the IC50 in data set [1] came out at 1200 nM; in data set [2] it was 6900 nM; in data set [4] it was 34 nM. Further, the IC50 shift in data set [3] was found to be 6.

The term IC50 denotes the midpoint of a concentration-inhibition curve.
